Test results: patent publication US10351575B2, “Bicyclic urea, thiourea, guanidine and cyanoguanidine compounds useful for the treatment of pain” (Array BioPharma Inc., priority 2012, dated 2019)

The compounds below were run against His-tagged recombinant human TrkA (Homo sapiens (Human), UniProt P04629) (assay: TrkA LanthaScreen Eu Kinase Binding Assay). Conditions: averaged IC50; TR-FRET binding, 60 min, 22° C.; read-out: TrkA Enzyme IC50.
Chain of His-tagged recombinant human TrkA (P04629 440-796): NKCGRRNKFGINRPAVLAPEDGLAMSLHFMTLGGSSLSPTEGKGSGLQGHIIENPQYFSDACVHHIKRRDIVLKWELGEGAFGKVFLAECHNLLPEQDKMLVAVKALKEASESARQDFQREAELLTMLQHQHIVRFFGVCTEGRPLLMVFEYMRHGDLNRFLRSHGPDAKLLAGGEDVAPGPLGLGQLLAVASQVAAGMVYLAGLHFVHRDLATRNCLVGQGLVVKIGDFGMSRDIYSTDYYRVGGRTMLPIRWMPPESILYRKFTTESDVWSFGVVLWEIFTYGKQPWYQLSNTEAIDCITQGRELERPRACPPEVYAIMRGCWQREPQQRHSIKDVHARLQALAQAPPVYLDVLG
Procedure, shortened: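 TR-FRET binding: 5 nM His-tagged human TrkA cytoplasmic domain with 4 nM Alexa-Fluor Tracer 236, 2 nM biotin anti-His and 2 nM Eu-streptavidin. Buffer was 25 mM MOPS pH 7.5, 5 mM MgCl2, 0.005% Triton X-100, 2% DMSO, 60 min at 22° C. IC50 from a four-parameter fit of ratiometric percent of control.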
O=C(Nc1c(Cl)c(OC[C@H]2CNCCO2)nn1-c1ccccc1)N[C@@H]1c2ccccc2C2(CC2)[C@H]1O [Example 140, 1-(4-chloro-3-((R)-morpholin-2-ylmethoxy)-1-phenyl-1H-pyrazol-5-yl)-3-((2′R,3′R)-2′-hydroxy-2′,3′-dihydrospiro[cyclopropane-1,1′-inden]-3′-yl)urea] showed an IC50 of under 0.1 µM.
CN1CCO[C@@H](COc2nn(-c3ccccc3)c(NC(=O)N[C@@H]3c4ccccc4C4(CC4)[C@H]3O)c2Cl)C1 [Example 141, 1-(4-chloro-3-(((R)-4-methylmorpholin-2-yl)methoxy)-1-phenyl-1H-pyrazol-5-yl)-3-((2′R,3′R)-2′-hydroxy-2′,3′-dihydrospiro[cyclopropane-1,1′-inden]-3′-yl)urea] gave an IC50 of under 0.1 µM.
Cc1c(OC[C@H]2CN(C(=O)OC(C)(C)C)CCO2)nn(-c2ccccc2)c1NC(=O)N[C@@H]1c2ccccc2C(C)(C)C[C@H]1O [Example 143, (R)-tert-butyl 2-(((5-(3-(trans-2-hydroxy-4,4-dimethyl-1,2,3,4-tetrahydronaphthalen-1-yl)ureido)-4-methyl-1-phenyl-1H-pyrazol-3-yl)oxy)methyl)morpholine-4-carboxylate] gave an IC50 of under 0.1 µM.
COc1nn(-c2ccccc2)c(NC(=O)N[C@@H]2c3ccccc3C(C)(C)C[C@H]2O)c1C [Example 144, 1-((1R,2R)-2-hydroxy-4,4-dimethyl-1,2,3,4-tetrahydronaphthalen-1-yl)-3-(3-methoxy-4-methyl-1-phenyl-1H-pyrazol-5-yl)urea] gave an IC50 of under 0.1 µM.
Work on Cn1nc(-c2ccccc2)cc1NC(=O)N[C@@H]1c2ccccc2C(C)(C)C[C@H]1O [Example 145, 1-((1R,2R)-2-hydroxy-4,4-dimethyl-1,2,3,4-tetrahydronaphthalen-1-yl)-3-(1-methyl-3-phenyl-1H-pyrazol-5-yl)urea] yielded an IC50 of 0.1 to 1 µM.
CCOc1nn(-c2ccccc2)c(NC(=O)N[C@@H]2c3ccccc3C(C)(C)C[C@H]2O)c1C [Example 146, 1-(3-ethoxy-4-methyl-1-phenyl-1H-pyrazol-5-yl)-3-((1R,2R)-2-hydroxy-4,4-dimethyl-1,2,3,4-tetrahydronaphthalen-1-yl)urea] showed an IC50 of under 0.1 µM.
Work on COCCOc1nn(-c2ccccc2)c(NC(=O)N[C@@H]2c3ccccc3C(C)(C)C[C@H]2O)c1C [Example 147, 1-((1R,2R)-2-hydroxy-4,4-dimethyl-1,2,3,4-tetrahydronaphthalen-1-yl)-3-(3-(2-methoxyethoxy)-4-methyl-1-phenyl-1H-pyrazol-5-yl)urea] yielded an IC50 of under 0.1 µM.
Cc1c(CCO)nn(-c2ccccc2)c1NC(=O)N[C@@H]1c2ccccc2C(C)(C)C[C@H]1O [Example 148, 1-((1R,2R)-2-hydroxy-4,4-dimethyl-1,2,3,4-tetrahydronaphthalen-1-yl)-3-(3-(2-hydroxyethyl)-4-methyl-1-phenyl-1H-pyrazol-5-yl)urea] showed an IC50 of under 0.1 µM.
Compound Cc1c(OCCO)nn(-c2ccccc2)c1NC(=O)N[C@@H]1c2ccccc2C(C)(C)C[C@H]1O [Example 149, 1-((1R,2R)-2-hydroxy-4,4-dimethyl-1,2,3,4-tetrahydronaphthalen-1-yl)-3-(3-(2-hydroxyethoxy)-4-methyl-1-phenyl-1H-pyrazol-5-yl)urea] has an IC50 of under 0.1 µM.
Compound Cc1c(OC[C@H]2CNCCO2)nn(-c2ccccc2)c1NC(=O)N[C@@H]1c2ccccc2C(C)(C)C[C@H]1O [Example 150, 1-((1R,2R)-2-hydroxy-4,4-dimethyl-1,2,3,4-tetrahydronaphthalen-1-yl)-3-(4-methyl-3-((R)-morpholin-2-ylmethoxy)-1-phenyl-1H-pyrazol-5-yl)urea] has an IC50 of under 0.1 µM.
For Cc1c(OC[C@H]2CN(C(C)C)CCO2)nn(-c2ccccc2)c1NC(=O)N[C@@H]1c2ccccc2C(C)(C)C[C@H]1O [Example 151, 1-((1R,2R)-2-hydroxy-4,4-dimethyl-1,2,3,4-tetrahydronaphthalen-1-yl)-3-(3-(((R)-4-isopropylmorpholin-2-yl)methoxy)-4-methyl-1-phenyl-1H-pyrazol-5-yl)urea], the IC50 was under 0.1 µM.
COc1nn(-c2ccccc2)c(NC(=O)N[C@@H]2c3ccccc3C(C)(C)[C@@H](OC)[C@H]2O)c1C [Example 153, 1-((r-1,t-2,t-3)-2-hydroxy-3-methoxy-4,4-dimethyl 1,2,3,4-tetrahydronaphthalen-1-yl)-3-(3-methoxy-4-methyl-1-phenyl-1H-pyrazol-5-yl)urea] was tested, and the IC50 was under 0.1 µM.
CO[C@H]1[C@@H](O)[C@H](NC(=O)Nc2c(C)c(-c3ccc(=O)n(C)c3)nn2-c2ccccc2)c2ccccc2C1(C)C [Example 154, 1-((r-1,t-2,t-3)-2-hydroxy-3-methoxy-4,4-dimethyl-1,2,3,4-tetrahydronaphthalen-1-yl)-3-(4-methyl-3-(1-methyl-6-oxo-1,6-dihydropyridin-3-yl)-1-phenyl-1H-pyrazol-5-yl)urea] gave an IC50 of under 0.1 µM.
CO[C@H]1[C@@H](O)[C@H](NC(=O)Nc2c(C)c(-c3cnc(C)nc3)nn2-c2ccccc2)c2ccccc2C1(C)C [Example 155, 1-((r-1,t-2,t-3)-2-hydroxy-3-methoxy-4,4-dimethyl-1,2,3,4-tetrahydronaphthalen-1-yl)-3-(4-methyl-3-(2-methylpyrimidin-5-yl)-1-phenyl-1H-pyrazol-5-yl)urea] was tested, and the IC50 was under 0.1 µM.
Compound CNC(=O)c1nn(-c2ccccc2)c(NC(=O)N[C@@H]2c3ccccc3C(C)(C)[C@H](OC)[C@H]2O)c1C [Example 156, 5-(3-((r-1,t-2,c-3)-2-hydroxy-3-methoxy-4,4-dimethyl-1,2,3,4-tetrahydronaphthalen-1-yl)ureido)-N,4-dimethyl-1-phenyl-1H-pyrazole-3-carboxamide] has an IC50 of under 0.1 µM.
For CO[C@@H]1[C@@H](O)[C@H](NC(=O)Nc2c(C)c(-c3cnn(C)c3)nn2-c2ccccc2)c2ccccc2C1(C)C [Example 157, 1-(1′,4-dimethyl-1-phenyl-1H,1′H-[3,4′-bipyrazol]-5-yl)-3-((r-1,t-2,c-3)-2-hydroxy-3-methoxy-4,4-dimethyl-1,2,3,4-tetrahydronaphthalen-1-yl)urea], the IC50 was under 0.1 µM.
CO[C@@H]1[C@@H](O)[C@H](NC(=O)Nc2c(C)c(OCC3CCN(C)CC3)nn2-c2ccccc2)c2ccccc2C1(C)C [Example 158, 1-((r-1,t-2,c-3)-2-hydroxy-3-methoxy-4,4-dimethyl-1,2,3,4-tetrahydronaphthalen-1-yl)-3-(4-methyl-3-((1-methylpiperidin-4-yl)methoxy)-1-phenyl-1H-pyrazol-5-yl)urea] showed an IC50 of under 0.1 µM.
